Target: human mGluR2 receptor (Homo sapiens (Human), UniProt Q14416)
Experiment: [35S]GTPγS binding assay (PAM assay)
Assay type: biochemical
Conditions: membranes from CHO cells transfected with human mGluR2; in presence of glutamate at EC25 concentration; averages of duplicate values of 11-concentration response curves
Protocol: The [^35S]GTPγS binding assay is a functional membrane-based assay used to study G-protein coupled receptor (GPCR) function whereby incorporation of a non-hydrolysable form of GTP, [^35S]GTPγS (guanosine 5′-triphosphate, labelled with […] ^35S), is measured. The G-protein […] subunit catalyzes the exchange of guanosine 5′-diphosphate (GDP) by guanosine triphosphate (GTP) and on activation of the GPCR by an agonist, [^35S]GTPγS, becomes incorporated and cannot be cleaved to continue the exchange cycle (Harper (1998) Current Protocols in Pharmacology 2.6.1-10, John Wiley & Sons, Inc.). […] Here we describe the use of the [^35S]GTPγS binding assay using membranes from cells transfected with the human mGluR2 receptor and adapted from Schaffhauser et al ((2003) Molecular Pharmacology 4:798-810) for the detection of the positive allosteric modulation (PAM) properties of the compounds of this invention.
CHO-cells were cultured to pre-confluence and stimulated with 5 mM butyrate for 24 hours, prior to washing in PBS, and then collected by scraping in homogenisation buffer (50 mM Tris-HCl buffer, pH 7.4, 4° C.). Cell lysates were homogenized briefly (15 s) using an ultra-turrax homogenizer. The homogenate was centrifuged at 23 500×g for 10 minutes and the supernatant discarded. The pellet was resuspended in 5 mM Tris-HCl, pH 7.4 and centrifuged again (30 000×g, 20 min, 4° C.). The final pellet was resuspended in 50 mM HEPES, pH 7.4 and stored at −80° C. in appropriate aliquots before use. Protein concentration was determined by the Bradford method (Bio-Rad, USA) with bovine serum albumin as standard.
Measurement of mGluR2 positive allosteric modulatory activity of test compounds in membranes containing human mGluR2 was performed using frozen membranes that were thawed and briefly homogenized prior to pre-incubation in 96-well microplates (15 μg/assay well, 30 minutes, 30° C.) in assay buffer (50 mM HEPES pH 7.4, 100 mM NaCl, 3 mM MgCl2, 50 μM GDP, 10 μg/ml saponin,) with increasing concentrations of positive allosteric modulator (from 0.3 nM to 50 μM) and either a minimal pre-determined concentration of glutamate (PAM assay), or no added glutamate. For the PAM assay, membranes were pre-incubated with glutamate at EC25 concentration, i.e. a concentration that gives 25% of the maximal response glutamate, and is in accordance to published data (Pin et al. (1999) Eur. J. Pharmacol. 375:277-294). After addition of [^35S]GTPγS (0.1 nM, f.c.) to achieve a total reaction volume of 200 μl, microplates were shaken briefly and further incubated to allow [^35S]GTPγS incorporation on activation (30 minutes, 30° C.). The reaction was stopped by rapid vacuum filtration over glass-fibre filter plates (Unifilter 96-well GF/B filter plates, Perkin-Elmer, Downers Grove, USA) microplate using a 96-well plate cell harvester (Filtermate, Perkin-Elmer, USA), and then by washing three times with 300 μl of ice-cold wash buffer (Na2PO4.2H2O 10 mM, NaH2PO4.H2O 10 mM, pH=7.4). Filters were then air-dried, and 40 μl of liquid scintillation cocktail (Microscint-O) was added to each well, and membrane-bound [^35S]GTPγS was measured in a 96-well scintillation plate reader (Top-Count, Perkin-Elmer, USA). Non-specific [^35S]GTPγS binding is determined in the presence of cold 10 μM GTP.

Sequence of human mGluR2 receptor (Q14416 19-872): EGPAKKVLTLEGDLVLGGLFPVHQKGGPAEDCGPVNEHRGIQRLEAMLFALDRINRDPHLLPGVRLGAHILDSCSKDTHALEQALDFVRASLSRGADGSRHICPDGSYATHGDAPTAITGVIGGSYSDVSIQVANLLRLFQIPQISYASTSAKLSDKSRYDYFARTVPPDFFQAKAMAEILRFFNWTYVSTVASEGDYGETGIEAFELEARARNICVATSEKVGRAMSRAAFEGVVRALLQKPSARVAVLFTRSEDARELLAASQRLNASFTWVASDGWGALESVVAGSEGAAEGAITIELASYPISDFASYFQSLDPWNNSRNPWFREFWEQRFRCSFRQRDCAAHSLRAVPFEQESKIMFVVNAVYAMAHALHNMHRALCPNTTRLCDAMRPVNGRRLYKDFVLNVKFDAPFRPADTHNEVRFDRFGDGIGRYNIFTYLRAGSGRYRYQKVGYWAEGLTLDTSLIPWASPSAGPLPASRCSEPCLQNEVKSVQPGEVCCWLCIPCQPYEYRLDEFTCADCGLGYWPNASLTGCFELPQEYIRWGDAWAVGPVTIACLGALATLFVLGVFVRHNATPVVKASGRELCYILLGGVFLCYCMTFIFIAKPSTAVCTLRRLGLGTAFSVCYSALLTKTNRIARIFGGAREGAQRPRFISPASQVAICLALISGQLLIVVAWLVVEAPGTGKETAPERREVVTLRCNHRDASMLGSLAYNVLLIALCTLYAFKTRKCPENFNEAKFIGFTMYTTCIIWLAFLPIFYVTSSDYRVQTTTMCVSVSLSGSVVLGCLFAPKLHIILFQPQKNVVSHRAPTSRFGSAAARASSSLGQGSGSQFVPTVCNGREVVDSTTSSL

Row | GTPgS - hR2 PAM pEC50 | SMILES
1 | 7.11 | CCCCCn1ccc(N2CCC(c3ccccc3)CC2)c(Cl)c1=O [Compound 11]
2 | 6.05 | CCCCn1ccc(N2CCC(CO)(c3ccccc3)CC2)c(Cl)c1=O [Compound 22, 1′-Butyl-3′-chloro-4-hydroxymethyl-4-phenyl-3,4,5,6-tetrahydro-2H,1′H-[1,4′]bipyridinyl-2′-one]
3 | 7.12 | O=c1c(Cl)c(N2CCC(c3cccc(C(F)(F)F)c3)CC2)ccn1CC1CC1 [Compound 16]
4 | 6.57 | O=c1c(Cl)c(N2CCC(F)(c3ccccc3)CC2)ccn1CC1CC1 [Compound 17]
5 | 6.45 | O=c1c(C(F)(F)F)c(N2CCC(c3ccccc3)CC2)ccn1CC1CC1 [Compound 4, 1′-Cyclopropylmethyl-4-phenyl-3′-trifluoromethyl-3,4,5,6-tetrahydro-2H,1′H-[1,4′]bipyridinyl-2′-one]
6 | 6.88 | O=c1c(Cl)c(N2CCC(c3ccccc3)CC2)ccn1CCC1CC1 [Compound 10]
7 | 6.25 | O=c1c(Cl)c(N2CCC(CF)(c3ccccc3)CC2)ccn1CC1CC1 [Compound 21, 3′-Chloro-1′-cyclopropylmethyl-4-fluoromethyl-4-phenyl-3,4,5,6-tetrahydro-2H,1′H-[1,4′]bipyridinyl-2′-one]
8 | 6.57 | CC(C)(O)c1ccc(C2CCN(c3ccn(CC4CC4)c(=O)c3Cl)CC2)cc1 [Compound 9, 3′-Chloro-1′-cyclopropylmethyl-4-[4-(1-hydroxy-1-methyl-ethyl)-phenyl]-3,4,5,6-tetrahydro-2H,1′H-[1,4′]bipyridinyl-2′-one]
9 | 6.64 | O=c1c(Cl)c(N2CCC(c3ccc(N4CCOCC4)cc3)CC2)ccn1CC1CC1 [Compound 13]
10 | 6.41 | O=c1c(Cl)c(N2CCC(F)(c3ccccc3)CC2)ccn1CCC1CC1 [Compound 26]
11 | 6.04 | O=c1c(C2CC2)c(N2CCC(c3ccccc3)CC2)ccn1CC1CC1 [Compound 8, 3′-Cyclopropyl-1′-cyclopropylmethyl-4-phenyl-3,4,5,6-tetrahydro-2H,1′H-[1,4′]bipyridinyl-2′-one]
12 | 6.90 | O=c1c(Cl)c(N2CCC(c3ccccc3)CC2)ccn1Cc1ccc(OC(F)(F)F)cc1 [Compound 5, 3′-Chloro-4-phenyl-1′-(4-trifluoromethoxybenzyl)-3,4,5,6-tetrahydro-2H,1′H-[1,4′]bipyridinyl-2′-one]
13 | 6.71 | CC(C)Cn1ccc(N2CCC(c3ccccc3)CC2)c(Cl)c1=O [Compound 19]
14 | 6.91 | O=c1c(Cl)c(N2CCC(OCCF)(c3ccccc3)CC2)ccn1CC1CC1 [Compound 20, 3′-Chloro-1′-cyclopropylmethyl-4-(2-fluoro-ethoxy)-4-phenyl-3,4,5,6-tetrahydro-2H,1′H-[1,4′]bipyridinyl-2′-one]
15 | 6.92 | O=c1c(Cl)c(N2CCC(c3ccc(F)cc3F)CC2)ccn1CC1CC1 [Compound 14]
16 | 6.58 | CC(C)CCn1ccc(N2CCC(F)(c3ccccc3)CC2)c(Cl)c1=O [Compound 23]
17 | 7.20 | CC(C)CCn1ccc(N2CCC(c3ccccc3)CC2)c(Cl)c1=O [Compound 18]
18 | 7.06 | CCCCn1ccc(N2CCC(c3ccccc3C(C)(C)O)CC2)c(Cl)c1=O [Compound 28, 1′-Butyl-3′-chloro-4-[2-(1-hydroxy-1-methyl-ethyl)-phenyl]-3,4,5,6-tetrahydro-2H,1′H-[1,4′]bipyridinyl-2′-one]
19 | 6.53 | O=c1c(Cl)c(N2CCC(c3ccccc3)CC2)ccn1CC1CC1 [Compound 1, 3′-Chloro-1′-cyclopropylmethyl-4-phenyl-3,4,5,6-tetrahydro-2H,1′H-[1,4′]bipyridinyl-2′-one]
20 | 6.46 | CCCCn1ccc(N2CCC(c3ccc(C(C)(C)O)cc3)CC2)c(Cl)c1=O [Compound 27]
21 | 6.83 | CCCCn1ccc(N2CCC(c3ccc(F)cc3F)CC2)c(Cl)c1=O [Compound 25]
22 | 7.03 | O=c1c(Cl)c(N2CCC(c3ccccc3F)CC2)ccn1CC1CC1 [Compound 12]
23 | 6.34 | N#CC1(c2ccccc2)CCN(c2ccn(CC3CC3)c(=O)c2Cl)CC1 [Compound 6, 3′-Chloro-1′-cyclopropylmethyl-2′-oxo-4-phenyl-3,4,5,6,1′,2′-hexahydro-2H-[1,4′]bipyridinyl-4-carbonitrile]
24 | 6.91 | CC(C)CCn1ccc(N2CCC(c3ccc(F)cc3F)CC2)c(Cl)c1=O [Compound 24]
25 | 6.88 | CCCCn1ccc(N2CCC(c3ccc(C(C)(C)O)cc3F)CC2)c(Cl)c1=O [Compound 29, 1′-Butyl-3′-chloro-4-[2-fluoro-4-(1-hydroxy-1-methyl-ethyl)-phenyl]-3,4,5,6-tetrahydro-2H,1′H-[1,4′]bipyridinyl-2′-one]
26 | 6.88 | O=c1c(Br)c(N2CCC(c3ccccc3)CC2)ccn1CC1CC1 [Compound 3, 3′-Bromo-1′-cyclopropylmethyl-4-phenyl-3,4,5,6-tetrahydro-2H,1′H-[1,4′]bipyridinyl-2′-one]

Row | SMILES | GTPgS - hR2 PAM pEC50
27 | O=c1c(Cl)c(N2CCC(c3ccccc3Cl)CC2)ccn1CC1CC1 [Compound 15] | 7.00

Same assay, conditions: membranes from CHO cells transfected with human mGluR2; in presence of glutamate at EC25 concentration; averages of duplicate values of 11-concentration response curves; read-out: GTPgS - hR2 PAM pEC50 (converted)

Row | EC50 [nM] | SMILES
28 | 240 | CCCCn1ccc(N2CCC(F)(c3ccccc3)CC2)c(Cl)c1=O [Compound 7]

From patent US11071729B2, “1′,3′-disubstituted-4-phenyl-3,4,5,6-tetrahydro-2H,1′H-[1,4′]bipyridinyl-2′-ones” (Janssen Pharmaceuticals, Inc., priority 2007, dated 2021)
